# Data published in US9120770B2, “Substituted pyridine and pyrazine compounds as PDE4 inhibitors” (DART NEUROSCIENCE (CAYMAN) LTD., priority 2013, dated 2015).
# Biological target: PDE4D3 (Homo sapiens, UniProt Q08499)
# Sequence (Q08499 1-673 isoform Q08499-2): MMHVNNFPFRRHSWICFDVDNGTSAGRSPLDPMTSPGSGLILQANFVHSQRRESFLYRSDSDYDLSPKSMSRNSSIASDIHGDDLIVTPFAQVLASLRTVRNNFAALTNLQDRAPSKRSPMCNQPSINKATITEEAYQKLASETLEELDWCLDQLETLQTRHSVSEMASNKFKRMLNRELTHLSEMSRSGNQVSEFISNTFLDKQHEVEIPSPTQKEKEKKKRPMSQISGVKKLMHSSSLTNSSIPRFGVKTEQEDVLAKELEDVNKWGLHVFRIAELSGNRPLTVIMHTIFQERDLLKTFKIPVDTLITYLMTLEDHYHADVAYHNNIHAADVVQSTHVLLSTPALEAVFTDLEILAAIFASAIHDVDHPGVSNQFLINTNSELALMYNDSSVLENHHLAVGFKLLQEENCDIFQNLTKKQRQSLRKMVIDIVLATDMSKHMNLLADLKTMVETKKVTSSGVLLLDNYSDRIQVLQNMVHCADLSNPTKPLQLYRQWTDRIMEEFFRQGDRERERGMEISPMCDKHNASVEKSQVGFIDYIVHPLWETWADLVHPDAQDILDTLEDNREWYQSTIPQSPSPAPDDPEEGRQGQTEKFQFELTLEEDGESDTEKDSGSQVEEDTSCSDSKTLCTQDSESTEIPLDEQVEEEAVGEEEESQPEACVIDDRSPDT
row,EC50 [nM],Compound
1,100 to 1000,"COc1ncc(Cn2cnc(N)n2)cc1-c1cccc(C)c1 [Example 222, 1-{[6-Methoxy-5-(3-methylphenyl)pyridin-3-yl]methyl}-1H-1,2,4-triazol-3-amine]"
2,100 to 1000,"COc1ncc(Cn2cc(CO)nn2)nc1-c1cccc(Cl)c1 [Example 266, (1-{[6-(3-Chlorophenyl)-5-methoxypyrazin-2-yl]methyl}-1H-1,2,3-triazol-4-yl)methanol]"
3,100 to 1000,"COc1ncc(Cn2cc(Cl)cn2)cc1-c1cccc(OC(F)F)c1 [Example 167, 5-[(4-Chloro-1H-pyrazol-1-yl)methyl]-3-[3-(difluoromethoxy)phenyl]-2-methoxypyridine]"
4,100 to 1000,"NC(=O)C1(c2ccc(Cc3cnc(OC(F)F)c(-c4cccc(Cl)c4)c3)cc2)CC1 [Example 245, 1-(4-{[5-(3-Chlorophenyl)-6-(difluoromethoxy)pyridin-3-yl]methyl}phenyl)cyclopropane-1-carboxamide]"
5,< 100,"FC(F)Oc1ncc(Cn2ncnn2)cc1-c1cccc(Cl)c1 [Example 162, 3-(3-Chlorophenyl)-2-(difluoromethoxy)-5-(2H-1,2,3,4-tetrazol-2-ylmethyl)pyridine]"
6,100 to 1000,"CCOc1ncc(Cn2ncnc2COC)cc1-c1cccc(OC(F)F)c1 [Example 166, 3-[3-(Difluoromethoxy)phenyl]-2-ethoxy-5-{[5-(methoxymethyl)-1H-1,2,4-triazol-1-yl]methyl}pyridine]"
7,100 to 1000,"CC(c1cnc(OC(F)F)c(-c2cccc(Cl)c2)c1)n1cncn1 (stereo not shown) [Example 150, 3-(3-Chlorophenyl)-2-(difluoromethoxy)-5-[1-(1H-1,2,4-triazol-1-yl)ethyl]pyridine]"
8,100 to 1000,"CCOc1ncc(Cn2cnc(CO)n2)nc1-c1cccc(OC(F)F)c1 [Example 208, [1-({6-[3-(Difluoromethoxy)phenyl]-5-ethoxypyrazin-2-yl}methyl)-1H-1,2,4-triazol-3-yl]methanol]"
9,1000 to 10000,"CCOc1ncc(Cn2cnc(C(F)(F)F)n2)nc1-c1cccc(OC(F)F)c1 [Example 187, 3-[3-(Difluoromethoxy)phenyl]-2-ethoxy-5-{[3-(trifluoromethyl)-1H-1,2,4-triazol-1-yl]methyl}pyrazine]"
10,100 to 1000,"COc1ncc(Cn2cnc(C(F)(F)F)n2)cc1-c1cccc(Cl)c1 [Example 146, 3-(3-Chlorophenyl)-2-methoxy-5-{[3-(trifluoromethyl)-1H-1,2,4-triazol-1-yl]methyl}pyridine]"
11,100 to 1000,"COc1ncc(Cn2cc(Cl)cn2)cc1-c1cccc(Cl)c1 [Example 178, 5-[(4-Chloro-1H-pyrazol-1-yl)methyl]-3-(3-chlorophenyl)-2-methoxypyridine]"
12,> 10000,"COc1ncc(Cn2ncnc2C(C)(C)O)cc1-c1cccc(Cl)c1 [Example 249, 2-(1-{[5-(3-Chlorophenyl)-6-methoxypyridin-3-yl]methyl}-1H-1,2,4-triazol-5-yl)propan-2-ol]"
13,< 100,"COc1ncc(Cn2ccnn2)cc1-c1cccc(Cl)c1 [Example 262, 3-(3-Chlorophenyl)-2-methoxy-5-(1H-1,2,3-triazol-1-ylmethyl)pyridine]"
14,> 10000,"COc1cccc(-c2cc(Cn3cncn3)cnc2OC(F)F)c1 [Example 175, 2-(Difluoromethoxy)-3-(3-methoxyphenyl)-5-(1H-1,2,4-triazol-1-ylmethyl)pyridine]"
15,< 100,"COc1ncc(Cn2cnc(N)n2)cc1-c1cccc(OC(F)F)c1 [Example 217, 1-({5-[3-(Difluoromethoxy)phenyl]-6-methoxypyridin-3-yl}methyl)-1H-1,2,4-triazol-3-amine]"
16,1000 to 10000,"CCOc1ncc(Cn2cnc([N+](=O)[O-])n2)nc1-c1cccc(OC(F)F)c1 [Example 193, 3-(3-(Difluoromethoxy)phenyl)-2-ethoxy-5-((3-nitro-1H-1,2,4-triazol-1-yl)methyl)pyrazine]"
17,1000 to 10000,"CCOc1ncc(Cn2ncnc2CO)nc1-c1cccc(OC(F)F)c1 [Example 209, [1-({6-[3-(Difluoromethoxy)phenyl]-5-ethoxypyrazin-2-yl}methyl)-1H-1,2,4-triazol-5-yl]methanol]"
18,< 100,"CCOc1ncc(Cn2cnc(N)n2)cc1-c1ccnc(OC(F)F)c1 [Example 230, 1-({5-[2-(Difluoromethoxy)pyridin-4-yl]-6-ethoxypyridin-3-yl}methyl)-1H-1,2,4-triazol-3-amine]"
19,100 to 1000,"COc1ncc(Cn2cnc(C3CC3)n2)cc1-c1cccc(Cl)c1 [Example 147, 3-(3-Chlorophenyl)-5-[(3-Cyclopropyl-1H-1,2,4-triazol-1-yl)methyl]-2-methoxypyridine]"
20,100 to 1000,"OCc1ncn(Cc2cnc(OC(F)F)c(-c3cccc(Cl)c3)c2)n1 [Example 200, (1-{[5-(3-Chlorophenyl)-6-(difluoromethoxy)pyridin-3-yl]methyl}-1H-1,2,4-triazol-3-yl)methanol]"

# More lines, now with the values behind:
row,Compound,EC50 [nM]
1,"COc1ncc(Cn2cnc(C)n2)nc1-c1cccc(Cl)c1 [Example 132, 3-(3-Chlorophenyl)-2-methoxy-5-[(3-methyl-1H-1,2,4-triazol-1-yl)methyl]pyrazine]",100 to 1000
2,"COc1ncc(Cn2cncn2)cc1-c1cc(C)ccn1 [Example 10, 2-Methoxy-3-(4-methylpyridin-2-yl)-5-(1H-1,2,4-triazol-1-ylmethyl)pyridine]",> 10000
3,"COc1ncc(Cc2ccc(N(C)C)nc2)cc1-c1cccc(Cl)c1 [Example 34, 5-{[5-(3-Chlorophenyl)-6-methoxypyridin-3-yl]methyl}-N,N-dimethylpyridin-2-amine]",100 to 1000
4,"CC(C)Oc1cccc(-c2cc(Cc3cnc(N)nc3)cnc2OC(F)F)c1 [Example 42, 5-{[6-(Difluoromethoxy)-5-[3-(propan-2-yloxy)phenyl]pyridin-3-yl]methyl}pyrimidin-2-amine]",1000 to 10000
5,"CCCOc1ccc(Cc2cnc(OC(F)F)c(-c3cccc(Cl)c3)c2)cn1 [Example 51, 3-(3-Chlorophenyl)-2-(difluoromethoxy)-5-[(6-propoxypyridin-3-yl)methyl]pyridine]",100 to 1000
6,"Cc1noc(C)c1Cc1cnc(OC(F)F)c(-c2cccc(Cl)c2)c1 [Example 99, 3-(3-Chlorophenyl)-2-(difluoromethoxy)-5-[(dimethyl-1,2-oxazol-4-yl)methyl]pyridine]",1000 to 10000
7,"CNc1ncc(Cc2cnc(OC(F)F)c(-c3cccc(Cl)c3)c2)cn1 [Example 93, 5-{[5-(3-Chlorophenyl)-6-(difluoromethoxy)pyridin-3-yl]methyl}-N-methylpyrimidin-2-amine]",< 100
8,"FC(F)Oc1ncc(Cn2cnc(C3CC3)n2)cc1-c1cccc(Cl)c1 [Example 128, 3-(3-Chlorophenyl)-5-[(3-cyclopropyl-1H-1,2,4-triazol-1-yl)methyl]-2-(difluoromethoxy)pyridine]",100 to 1000
9,"CCOc1ncc(Cc2cnc(C(N)=O)nc2)nc1-c1cccc(Cl)c1 [Example 126, 5-{[6-(3-Chlorophenyl)-5-ethoxypyrazin-2-yl]methyl}pyrimidine-2-carboxamide]",< 100
10,"COc1ncc(Cc2ccccc2CO)cc1-c1cccc(Cl)c1 [Example 37, (2-{[5-(3-Chlorophenyl)-6-methoxypyridin-3-yl]methyl}phenyl)methanol]",100 to 1000
11,"COc1ncc(Cc2cnc(N)nc2)nc1-c1cccc(OC(F)F)c1 [Example 106, 5-({6-[3-(Difluoromethoxy)phenyl]-5-methoxypyrazin-2-yl}methyl)pyrimidin-2-amine]",< 100
12,"CC(C)Oc1ncc(Cc2cnc(N)nc2)cc1-c1cccc(Cl)c1 [Example 41, 5-{[5-(3-Chlorophenyl)-6-(propan-2-yloxy)pyridin-3-yl]methyl}pyrimidin-2-amine]",100 to 1000
13,"COc1ncc(Cc2cnc(N)nc2)cc1-c1cccc(Cl)c1 [Example 25, 5-{[5-(3-Chlorophenyl)-6-methoxypyridin-3-yl]methyl}pyrimidin-2-amine]",< 100
14,"Cc1nc(C)c(Cc2cnc(OC(F)F)c(-c3cccc(Cl)c3)c2)s1 [Example 69, 3-(3-Chlorophenyl)-2-(difluoromethoxy)-5-[(dimethyl-1,3-thiazol-5-yl)methyl]pyridine]",< 100
15,"COc1ncc(Cn2cncn2)nc1-c1cccc(Cl)c1 [Example 130, 3-(3-Chlorophenyl)-2-methoxy-5-(1H-1,2,4-triazol-1-ylmethyl)pyrazine]",100 to 1000
16,"COc1ncc(Cc2cnc(C(N)=O)nc2)cc1-c1cccc(OC(F)F)c1 [Example 121, 5-({5-[3-(Difluoromethoxy)phenyl]-6-methoxypyridin-3-yl}methyl)pyrimidine-2-carboxamide]",100 to 1000
17,"COc1ncc(Cn2cncn2)cc1-c1cccc(F)c1 [Example 129, 3-(3-Fluorophenyl)-2-methoxy-5-(1H-1,2,4-triazol-1-ylmethyl)pyridine]",100 to 1000
18,"FC(F)Oc1ncc(Cc2cnccn2)cc1-c1cccc(Cl)c1 [Example 110, 2-{[5-(3-Chlorophenyl)-6-(difluoromethoxy)pyridin-3-yl]methyl}pyrazine]",< 100
19,"COc1cccc(-c2cc(Cc3cnc(C(N)=O)nc3)cnc2OC(F)F)c1 [Example 115, 5-{[6-(Difluoromethoxy)-5-(3-methoxyphenyl)pyridin-3-yl]methyl}pyrimidine-2-carboxamide]",100 to 1000
20,"COc1ncc(Cc2cnc(NC(C)=O)nc2)cc1-c1cccc(Cl)c1 [Example 44, N-(5-[{5-(3-Chlorophenyl)-6-methoxypyridin-3-yl]methyl}pyrimidin-2-yl)acetamide]",100 to 1000
21,"CC(C)Oc1ccc(Cc2cnc(OC(F)F)c(-c3cccc(Cl)c3)c2)cn1 [Example 50, 3-(3-Chlorophenyl)-2-(difluoromethoxy)-5-{[6-(propan-2-yloxy)pyridin-3-yl]methyl}pyridine]",1000 to 10000
22,"CCOc1ncc(Cc2cnc(N)nc2)nc1-c1cccc(Cl)c1 [Example 105, 5-{[6-(3-Chlorophenyl)-5-ethoxypyrazin-2-yl]methyl}pyrimidin-2-amine]",< 100
23,"CC(C)Oc1ncc(Cn2cncn2)cc1-c1cccc(Cl)c1 [Example 135, 3-(3-Chlorophenyl)-2-(propan-2-yloxy)-5-(1H-1,2,4-triazol-1-ylmethyl)pyridine]",1000 to 10000
